pEC50: −log10 of the molar value.
Experiments:
[1] = Clearance in rat; format: ADME, organism-based; conditions: in vivo
[2] = Partition coefficient (logP); format: physicochemical; conditions: octanol/water
[3] = Oral bioavailability in rat; format: ADME, organism-based; conditions: in vivo
[4] = Area under the plasma concentration-time curve in rat after peroral administration; format: ADME, organism-based; conditions: po
[5] = Volume of distribution during steady state in rat; conditions: in vivo
[6] = Maximum plasma concentration in rat after peroral administration; format: ADME, organism-based; set-up: route oral; conditions: po
[7] = Oral half-life in rat after peroral administration; format: ADME, organism-based; conditions: in vivo
Mus musculus [8] = test: In vivo insulin effect in db/db mice after oral treatment; format: functional
Mus musculus [9] = test: In vivo nonfasting blood glucose in db/db mice after oral treatment; format: functional
Mus musculus [10] = test: In vivo nonfasting triglyceride in db/db mice after oral treatment; format: functional
Mus musculus [11] = species: Mus musculus; test: Area under blood glucose time curve after oral glucose test in mice; format: functional
[12] = molecular target: T1, Peroxisome proliferator-activated receptor delta (Homo sapiens, UniProt Q03181); test: In vitro transactivation of human Peroxisome proliferator activated receptor delta (hPPARdelta)
T1 sequence (Q03181 whole entry): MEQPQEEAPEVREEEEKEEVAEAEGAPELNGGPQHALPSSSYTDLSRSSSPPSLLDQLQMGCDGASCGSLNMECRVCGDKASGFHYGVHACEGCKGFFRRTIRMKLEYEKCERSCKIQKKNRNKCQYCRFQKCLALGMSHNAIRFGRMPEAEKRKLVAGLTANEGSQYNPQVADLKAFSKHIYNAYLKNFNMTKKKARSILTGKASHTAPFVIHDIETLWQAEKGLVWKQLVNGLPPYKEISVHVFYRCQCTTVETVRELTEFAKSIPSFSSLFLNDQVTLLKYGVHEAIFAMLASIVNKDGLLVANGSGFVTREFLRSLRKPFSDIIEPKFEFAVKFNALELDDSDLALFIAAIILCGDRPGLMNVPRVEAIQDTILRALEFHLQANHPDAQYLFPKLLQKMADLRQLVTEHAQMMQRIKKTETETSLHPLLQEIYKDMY

[13] = molecular target: T2, Peroxisome proliferator-activated receptor alpha (Rattus norvegicus, UniProt P37230); test: (§1) In vitro transactivation of rat Peroxisome proliferator activated receptor alpha
T2 sequence (P37230 whole entry): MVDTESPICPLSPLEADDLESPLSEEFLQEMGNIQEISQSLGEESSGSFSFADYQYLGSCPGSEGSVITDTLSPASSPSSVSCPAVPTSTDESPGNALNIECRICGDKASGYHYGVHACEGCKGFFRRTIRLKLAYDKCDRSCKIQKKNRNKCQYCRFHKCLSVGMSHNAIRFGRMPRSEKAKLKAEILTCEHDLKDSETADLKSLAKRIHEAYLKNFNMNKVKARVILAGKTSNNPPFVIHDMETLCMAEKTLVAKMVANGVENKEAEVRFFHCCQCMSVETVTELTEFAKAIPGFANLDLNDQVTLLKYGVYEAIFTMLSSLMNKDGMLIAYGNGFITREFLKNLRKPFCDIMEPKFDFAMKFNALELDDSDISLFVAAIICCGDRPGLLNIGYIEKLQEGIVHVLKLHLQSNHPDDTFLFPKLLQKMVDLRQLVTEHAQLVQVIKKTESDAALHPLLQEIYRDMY

[14] = molecular target: T3, Peroxisome proliferator-activated receptor alpha (Rattus norvegicus) (UniProt P37230); test: as §1; set-up: concentration or dose not given beside the values
T3 sequence (whole entry): T2 sequence (P37230 whole entry)

[15] = molecular target: T4, Peroxisome proliferator-activated receptor alpha (Homo sapiens, UniProt Q07869); test: (§2) In vitro transactivation of human Peroxisome proliferator activated receptor alpha (hPPARalpha)
T4 sequence (Q07869 whole entry): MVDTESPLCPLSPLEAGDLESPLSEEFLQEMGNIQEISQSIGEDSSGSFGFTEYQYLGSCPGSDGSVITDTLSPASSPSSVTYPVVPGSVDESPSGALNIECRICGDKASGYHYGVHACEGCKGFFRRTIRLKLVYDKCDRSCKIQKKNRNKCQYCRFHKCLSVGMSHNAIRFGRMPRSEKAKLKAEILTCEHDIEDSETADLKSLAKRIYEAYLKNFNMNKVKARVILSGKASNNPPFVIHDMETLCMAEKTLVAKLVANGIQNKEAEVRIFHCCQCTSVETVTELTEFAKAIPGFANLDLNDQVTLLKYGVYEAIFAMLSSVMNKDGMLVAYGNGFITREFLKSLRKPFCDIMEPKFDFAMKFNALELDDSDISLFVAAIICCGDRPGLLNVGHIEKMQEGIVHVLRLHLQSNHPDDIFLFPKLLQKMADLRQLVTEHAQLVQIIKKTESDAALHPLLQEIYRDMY

[16] = molecular target: T5, Peroxisome proliferator-activated receptor alpha (Homo sapiens) (UniProt Q07869); test: as §2; set-up: concentration or dose not given beside the values
T5 sequence (whole entry): T4 sequence (Q07869 whole entry)

[17] = molecular target: T6, Peroxisome proliferator-activated receptor gamma (Homo sapiens, UniProt P37231)
T6 sequence (P37231 whole entry): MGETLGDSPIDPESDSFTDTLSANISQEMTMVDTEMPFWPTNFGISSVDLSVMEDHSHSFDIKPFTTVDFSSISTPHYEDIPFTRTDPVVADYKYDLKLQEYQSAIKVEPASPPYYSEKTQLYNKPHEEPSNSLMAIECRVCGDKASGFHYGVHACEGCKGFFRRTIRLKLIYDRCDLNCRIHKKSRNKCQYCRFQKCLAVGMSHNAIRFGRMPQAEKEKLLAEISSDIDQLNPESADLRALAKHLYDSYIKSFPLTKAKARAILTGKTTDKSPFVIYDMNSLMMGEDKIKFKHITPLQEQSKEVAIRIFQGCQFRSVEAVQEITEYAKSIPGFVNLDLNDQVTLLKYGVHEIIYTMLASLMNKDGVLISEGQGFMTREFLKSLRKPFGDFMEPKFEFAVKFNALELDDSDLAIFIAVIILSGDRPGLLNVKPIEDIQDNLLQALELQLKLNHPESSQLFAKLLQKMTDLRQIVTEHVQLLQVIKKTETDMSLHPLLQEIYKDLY
Description: In vitro transactivation of human Peroxisome proliferator activated receptor gamma

Structure (SMILES)	clearance [1]	logP [2]	bioavailability [3]	AUC [4]	Vd [5]	half-life [7]	ED50 (Mus musculus [8])	Max reduction (Mus musculus [8])	ED50 (Mus musculus [9])	Max reduction (Mus musculus [9])	ED50 (Mus musculus [10])	Max reduction (Mus musculus [10])	Max reduction (Mus musculus [11])	ED50 (Mus musculus [11]; Mus musculus, Blood, po)	pEC50 [12]	pEC50 [13]	Fold activation [14]	pEC50 [15]	Fold activation [16]	pEC50 [17]	further results
CCO[C@@H](Cc1ccc(OC/C=C/C#Cc2cccc(C#C/C=C/COc3ccc(C[C@H](OCC)C(=O)O)cc3)c2)cc1)C(=O)O	0.23 mL/min/kg	4.81	63%	84900 ng·h/mL	0.16 L/kg	6.7 h	0.6 mg/kg	86%	0.9 mg/kg	54%	0.1 mg/kg	46%	60%	0.5 mg/kg	4.98	5.34	109%	6.52	193%	5.78	Cmax [6]: 7210 ng/mL
CCc1ccc(CCOc2ccc(CC3SC(=O)NC3=O)cc2)nc1 (stereo not drawn) [PIOGLITAZONE]	–	–	–	–	–	–	15 mg/kg	54%	2.6 mg/kg	53%	27 mg/kg	21%	39%	12 mg/kg	–	–	–	–	–	–	–
Cc1cccc(Nc2cc(Cl)nc(SCC(=O)O)n2)c1C [PIRINIXIC ACID]	–	–	–	–	–	–	15 mg/kg	45%	2.2 mg/kg	36%	3 mg/kg	32%	13%	–	–	5.68	–	–	–	–	ED50 (Mus musculus [11]): 4.7 mg/kg
CCCCC[C@H](O)/C=C/[C@@H]1[C@H]2C/C(=C\CCCC(=O)O)C[C@H]2C[C@H]1O [CARBACYCLIN]	–	–	–	–	–	–	–	–	–	–	–	–	–	–	5.73	–	15%	6.02	79%	5.10	–
CCO[C@@H](Cc1ccc(OC/C=C/C#Cc2ccc(C#C/C=C/COc3ccc(C[C@H](OCC)C(=O)O)cc3)cc2)cc1)C(=O)O	0.1 mL/min/kg	4.81	100%	111000 ng·h/mL	0.04 L/kg	> 6 h	0.4 mg/kg	90%	0.4 mg/kg	55%	0.2 mg/kg	56%	52%	0.9 mg/kg	5.66	5.20	210%	6.15	173%	6.96	Cmax [6]: 27800 ng/mL
CCO[C@@H](Cc1ccc(OC/C=C/C#Cc2ccccc2)cc1)C(=O)O	0.54 mL/min/kg	3.87	89%	62200 ng·h/mL	0.14 L/kg	2.03 h	1 mg/kg	92%	0.4 mg/kg	54%	0.4 mg/kg	57%	45%	1.2 mg/kg	5.16	6.15	112%	7.17	123%	5.95	Cmax [6]: 4570 ng/mL
CCO[C@@H](Cc1ccc(OC/C=C(\C)c2ccc(-c3ccc(/C(C)=C/COc4ccc(C[C@H](OCC)C(=O)O)cc4)cc3)cc2)cc1)C(=O)O	0.04 mL/min/kg	4.89	58%	9790 ng·h/mL	0.08 L/kg	> 6.67 h	0.2 mg/kg	91%	0.2 mg/kg	40%	0.3 mg/kg	60%	53%	0.4 mg/kg	5.68	4.70	203%	5.17	247%	6.49	Cmax [6]: 23200 ng/mL
CN(CCOc1ccc(CC2SC(=O)NC2=O)cc1)c1ccccn1 (stereo not drawn) [ROSIGLITAZONE]	2.1 mL/min/kg	1.91	83%	14600 ng·h/mL	–	3.03 h	0.1 mg/kg	43%	0.9 mg/kg	35%	0.1 mg/kg	58%	16%	0.8 mg/kg	–	–	–	–	–	–	–
CCO[C@@H](Cc1ccc(OC/C=C(\C)c2ccc(-c3ccccc3)cc2)cc1)C(=O)O	0.49 mL/min/kg	4.5	100%	116000 ng·h/mL	0.16 L/kg	3.55 h	0.2 mg/kg	95%	0.2 mg/kg	53%	0.3 mg/kg	65%	50%	0.3 mg/kg	5.02	4.95	166%	6.31	158%	5.69	Cmax [6]: 9250 ng/mL
CC(C)(Oc1ccc(C(=O)c2ccc(Cl)cc2)cc1)C(=O)O [FENOFIBRIC ACID]	–	4.27	–	–	–	–	191 mg/kg	32%	> 300 mg/kg	10%	> 300 mg/kg	20%	0%	> 300 mg/kg	–	3.88	331%	4.49	265%	–	–

Source: ChEMBL document CHEMBL1145887, “Large dimeric ligands with favorable pharmacokinetic properties and peroxisome proliferator-activated receptor agonist activity in vitro and in vivo” (J Med Chem, 2003)
